The record followed here is patent US20160378909A1, “PROCESS FOR IDENTIFYING CULTURE CONDITIONS FOR A CELL OR ORGANISM” (GLAXOSMITHKLINE BIOLOGICALS SA, priority 2013, published 2016).

For the assay, the system named is Bordetella pertussis. Nature of the assay: microbe, parasite or virus in culture. The class given is cell-based. Here is the method: Cells were harvested by centrifugation, washed twice with NaCl 0.9% (w/v), and resuspended in fresh medium (de novo minimal CDM; see composition in Table 1) at a theoretical OD650 nm of 0.5, as calculated from the OD650 nm of the culture before harvest. 20 μl of this cell suspension were used to inoculate each well of a 96-well microtiter plate filled with 180 μl of de novo minimal CDM. Only the inner wells of the plate were used for cultures, in order to minimize evaporation, and two controls were included, in which the supplement solution was replaced with water.
The plate was then incubated for 7 days at 35° C. in a Biotek Synergy H1 reader with constant shaking, and growth was automatically monitored every 10 minutes as OD650 nm.
The relative growth yield and growth rate for each supplement was then averaged over the three independent repeats, and the standard deviation was calculated.

The mark [1] stands for this setting: Bordetella pertussis, 168 h, read-out: Relative yield Average, 2 mM in medium, max OD650 nm relative to water controls.
[2] abbreviates: Bordetella pertussis, read-out: Relative growth rate Average, 2 mM in medium, first generation, relative to water controls.

Structures can show the parent of a compound that is named as a salt. Where two headings read alike, the source gives them in different places.

As to `NC(=O)C[C@H](N)C(=O)O` [L-Asparagine], the activity at 1330 µM by setting is: (Bordetella pertussis, 168 h, read-out: Relative yield Average, 1.33 mM in medium, max OD650 nm relative to water controls) 95 to 105%; (Bordetella pertussis, read-out: Relative growth rate Average, 1.33 mM in medium, first generation, relative to water controls) 95 to 105%. Moreover, the activity at 13300 µM is, setting by setting: (Bordetella pertussis, 168 h, read-out: Relative yield Average, 13.3 mM in medium, max OD650 nm relative to water controls) under 95%; (Bordetella pertussis, read-out: Relative growth rate Average, 13.3 mM in medium, first generation, relative to water controls) 95 to 105%.

For `Cc1ncc(C[n+]2csc(CCO)c2C)c(N)n1` [Thiamine HCl], the activity at 1 µg/mL (Bordetella pertussis, 168 h, read-out: Relative yield Average, 1 mg/L in medium, max OD650 nm relative to water controls) is 95 to 105% and the activity at 1 µg/mL (Bordetella pertussis, read-out: Relative growth rate Average, 1 mg/L in medium, first generation, relative to water controls) fell in the range of 95 to 105%. The activity at 10 µg/mL is over 105% (Bordetella pertussis, 168 h, read-out: Relative yield Average, 10 mg/L in medium, max OD650 nm relative to water controls) and over 105% (Bordetella pertussis, read-out: Relative growth rate Average, 10 mg/L in medium, first generation, relative to water controls).

As for `CC(=O)C(=O)O` [Sodium pyruvate], the activity at 2000 µM by setting is: under setting [1], under 95%; under setting [2], under 95%.

Turning to `N[C@@H](CO)C(=O)O` [L-Serine], the activity at 2000 µM runs as follows: under setting [1], under 95%; under setting [2], 95 to 105%. The activity at 20000 µM (Bordetella pertussis, 168 h, read-out: Relative yield Average, 20 mM in medium, max OD650 nm relative to water controls) is under 95%.

As for `N[C@@H](Cc1ccc(O)cc1)C(=O)O` [L-Tyrosine], the activity at 22.1 µM (Bordetella pertussis, 168 h, read-out: Relative yield Average, 0.0221 mM in medium, max OD650 nm relative to water controls) was 95 to 105% and the activity at 22.1 µM (Bordetella pertussis, read-out: Relative growth rate Average, 0.0221 mM in medium, first generation, relative to water controls) was 95 to 105%. Also, the activity at 221 µM is 95 to 105% (Bordetella pertussis, 168 h, read-out: Relative yield Average, 0.221 mM in medium, max OD650 nm relative to water controls) and under 95% (Bordetella pertussis, read-out: Relative growth rate Average, 0.221 mM in medium, first generation, relative to water controls).

In the case of `O=C(O)CCC(=O)O` [Succinic acid], under setting [1], the activity at 2000 µM is under 95%.

For the compound Calcium pantothenate, the “Relative growth rate Average” value came to 102.18% (1 mg/L in medium, first generation, relative to water controls) and 102.47% (10 mg/L in medium, first generation, relative to water controls). In addition, the “Relative yield Average” value is, setting by setting: (1 mg/L in medium, max OD650 nm relative to water controls) 106.59%; (10 mg/L in medium, max OD650 nm relative to water controls) 98.99%.

Take `Nc1nc(=O)c2nc(CNc3ccc(C(=O)N[C@@H](CCC(=O)O)C(=O)O)cc3)cnc2[nH]1` [Folate]: the activity at 0.12 µg/mL is over 105% (Bordetella pertussis, 168 h, read-out: Relative yield Average, 0.12 mg/L in medium, max OD650 nm relative to water controls) and 95 to 105% (Bordetella pertussis, read-out: Relative growth rate Average, 0.12 mg/L in medium, first generation, relative to water controls). In addition, the activity at 1.2 µg/mL runs as follows: (Bordetella pertussis, 168 h, read-out: Relative yield Average, 1.2 mg/L in medium, max OD650 nm relative to water controls) 95 to 105%; (Bordetella pertussis, read-out: Relative growth rate Average, 1.2 mg/L in medium, first generation, relative to water controls) 95 to 105%.

As to `C[C@H](O)C(=O)[O-].[Na+]` [Sodium L-Lactate], the “Relative growth rate Average” value is recorded as 128.73% (5 mM in medium, first generation, relative to water controls) and 103.33% (50 mM in medium, first generation, relative to water controls). The “Relative yield Average” value is on record as 100.70% (5 mM in medium, max OD650 nm relative to water controls) and 192.99% (50 mM in medium, max OD650 nm relative to water controls).
